One substance from US7572436B1, “Thionin as an antineoplastic and immunostimulant” (priority 2000, dated 2009) can be followed below.

In one series the test system is K562 Target Cells. Kind of series: Natural killer assay (^51Cr release), human PBLs against K562. The series is classed as cell-based. As to conditions: PT 0.01 μg/ml. The method, then: (§1) Murine spleen cell and human peripheral blood lymphocytes (PBLs) were obtained as described in the procedure for the Mitogen Assay.
(§2) Drugs and control substances were added, using sterile techniques, to the wells of a 24-well plate, using RPMI-10 as the culture medium. Spleen cells or human lymphocytes were added last to the wells at a concentration of 4×10^6 cells per 2 ml total volume in the well. Splenocyte incubation was usually three days (65-70 hours) while human lymphocyte stimulation may be extended to four to five days. The cells were incubated at 37° C. in a humidified 5% CO2 incubator.
On the day of harvest, 10^7 target cells were labeled with 150 μCi of ^51Cr (sodium chromate). Target cells used were YAC-I (murine Lymphoma) or K562 (human chronic myelogenous leukemia). […]
The 96-well plate was centrifuged at 150×g for four minutes to gently bring the effector and target cells in contact. […] The percent release was calculated using the following formula: […]
Addition of PT stimulates both murine splenocytes and human PBLs to kill tumor cells through lysis. […] After a 30-minute incubation, the radioactivity in the supernatant fluid was counted as a measure of lysis of the target cells, which reflects NK activity. […]

Series [1] deals with murine Balb/C splenocytes. Description: Binding of ^125I-labeled PT to mouse spleen cells. As to conditions: for Kd: ^125I-PT. The source says:
Splenocytes are isolated from the spleens of selected mice (as described herein), treated to remove red cells, resuspended in PBS after washing, and counted using Trypan Blue exclusion. The average yield of spleen cells (splenocytes) from one spleen is 1−1.5×10^8 cells. A desired concentration of cells per sample tube in the binding assay is more than 5×10^6 cells/ml.
The protocol for the binding assay has been previously described (Vernon and Rogers, Toxicon 30:711-721, 1992). Reactions were carried out in a total volume of 400 μl in each microcentrifuge tube (160 μl PBS with ^125I-labeled PT at varying concentrations with 240 μl of spleen cell suspensions).
A total of 10^7 spleen cells were placed in each of the reaction microfuge tubes, and allowed to equilibrate at room temperature for five minutes. To each tube was added radiolabeled thionin (e.g., ^125I-PT) in amounts from 0.1 to 20 μg/ml. The radiolabeled PT used in the experiments contained approximately 10^6 counts/minute (0.3 μCi) per μg PT. The suspension was incubated at room temperature for 10 minutes, then placed on ice for an additional 10 minutes. The tubes were then centrifuged to pellet the cells.
The radioactivity in the supernatant fluid was determined from an aliquot removed from the tube. The plastic pipette tip used to transfer the aliquot was also put in the vial and counted in a gamma ray counter along with the transferred aliquot of the supernatant fluid, since this tip may absorb PT from the aliquot during transfer. The radioactivity amount determined represents the “free” PT, not bound to a cell.
After removal of the entire supernatant, the sedimented cells were washed twice in PBS, and the entire final washed suspension of cells was transferred to a vial for radioactivity counting. As with measurement of radioactivity in the supernatant, the pipette tip used to transfer the cell sample was added to the vial to include any PT that might be bound to the plastic tip. This measures the total “bound” PT.
Non-specific binding was determined in the presence of a 100-fold excess of non-radioactive iodinated PT. The binding data reported were obtained by subtracting the non-specific from the total binding. Triplicate assays were performed for each concentration of PT employed.

The test system of a further series is YAC-1 target cells. Description: Natural killer assay (^51Cr release), murine splenocytes against YAC-1. Format: cell-based. As to conditions: for % Cell Lysis: Balb/C splenocytes, ^51Cr loaded YAC-1 cells. As to the method: as §1, §2
On the day of harvest, 10^7 target cells were labeled with 150 μCi of ^51Cr (sodium chromate). Target cells used were YAC-I (murine Lymphoma) or K562 (human chronic myelogenous leukemia).
The cells were adjusted to 2×10^7 cells/ml in RPMI-10 and 150 μCi of ^51Cr were added to 500 μl of the target cell suspension (10^7 total cells) and incubated in a 5% CO2 humidified incubator for 1.5 hours. The labeled cells were washed three times with 10 ml RPMI-10 and then resuspended in 5 ml (2×10^6 cells/ml). Supernatants from washings of labeled cells were isolated and contained under lead shielding.
The stimulated effector cells were thoroughly mixed and removed from individual wells of the 24-well plate and transferred to tubes for centrifugation at 200×g. The supernatants were decanted and the pelleted cells washed once with 2 ml RPMI-10. The cells were finally resuspended in a total volume of 500 μl at approximately 8×10^6 cells/ml in RPMI-10.
One hundred microliters of the effector cell suspension (8×10^5 cells) were added in triplicate to a 96-well, V-bottom microplate. RPMI-10 was added to the wells designated for spontaneous release and total release of the target cells. One hundred microliters of the target cell suspension (1×10^4 cells/well) were added to the wells for a total volume of 200 μl. The “total release” wells contained 15 μl of 9% Triton X-100, 85 μl of RPMI-10, and 100 μl of target cells.
The 96-well plate was centrifuged at 150×g for four minutes to gently bring the effector and target cells in contact. The plate was then incubated in a humidified 5% CO2 incubator. After four hours, the assay plate was again centrifuged for five minutes at 250×g. One hundred microliters of the supernatant was carefully removed from each well and placed in 12 mm×75 mm glass tubes for counting in a gamma counter. The percent release was calculated using the following formula: […]
Addition of PT stimulates both murine splenocytes and human PBLs to kill tumor cells through lysis. This effect is enhanced in the presence of IL-2. Experimentally, the YAC-1 tumor cell line is routinely used as a target cell for murine NK cells, and the K562 cell line is used as the target for human PBLs. The human prostate cell line DU145 was also included in the test. The data set out in Table 5 show an activation of both murine and human NK cells by PT and IL-2. For these experiments, the drugs, PT and IL-2, were included in the cell suspension and incubated for 48 hours. After this period, the splenocyte suspension was mixed with the YAC-1 target cells that had been loaded with ^51Cr for four hours. The human PBLs were added to a K562 or DU-145 cell suspension that had been similarly loaded. After a 30-minute incubation, the radioactivity in the supernatant fluid was counted as a measure of lysis of the target cells, which reflects NK activity. […]

Several values for one entry are separate records, joined by “and”; a condition that tells them apart may be missing. Equal values may be shown once. Read-outs that look alike come from different tables or passages of the source. Where no end group is shown, it is not given here.

“Pyrularia thionin (KSCCRNTWARNCYNVCRLPGTISREICAKKCDCKIISGTTCPSDYPK; ends and bridges not checked; also: labeled with 125I) [PT]”: the “% Cytotoxicity” value in the series on K562 Target Cells was determined as 8.4 ± 0.1%; with YAC-1 target cells (Swiss Webster murine splenocytes, YAC-1 targets, 48 hours with drugs, PT 0.01 μg/ml, IL-2 50 units/ml when present, effector to target ratio 80), 3.4 ± 0.9%. Further, the Kd in series [1] (PT up to 1 μg/ml, read-out: dissociation constant, high affinity binding site) is 65 nM and ~65 nM; in series [1] (PT up to 20 μg/ml, read-out: dissociation constant, low affinity binding site), 1600 nM and ~1600 nM. The “number of sites per cell, high affinity site” value in series [1] (murine spleen cells) is reported as 1.4×10^5. Besides, the “number of sites per cell, low affinity site” value in series [1] (murine spleen cells) was 1×10^6. The “% Cell Lysis” value with YAC-1 target cells (0.01 μg/ml) is recorded as −0.9 ± 0.5%; with YAC-1 target cells (0.03 μg/ml), 2.1 ± 0.2%; in the series on YAC-1 target cells (0.1 μg/ml), 1.8 ± 0.4%.
